Test results: the NIST ThermoML archive (doi:10.1021/acs.jced.8b00037)

Assay: molar heat capacity at constant volume
Settings: Liquid, Vacuum adiabatic calorimetry

COC [dimethyl ether]
Settings	molar heat capacity at constant volume [J/K/mol]
157.53 K, 4013 kPa	69.69
159.72 K, 8322 kPa	69.6
161.9 K, 12544 kPa	69.78
164.07 K, 16672 kPa	69.67
166.23 K, 20708 kPa	69.85
168.38 K, 24704 kPa	69.65
170.51 K, 28650 kPa	69.79
172.64 K, 32529 kPa	70.05
176.39 K, 3776 kPa	68.85
178.57 K, 7593 kPa	68.76
180.74 K, 11350 kPa	68.76
182.9 K, 15062 kPa	68.62
185.05 K, 18718 kPa	68.78
187.2 K, 22325 kPa	68.84
189.34 K, 25885 kPa	68.95
191.46 K, 29382 kPa	69
193.58 K, 32823 kPa	69.21
200.6 K, 3313 kPa	68.02
202.77 K, 6569 kPa	67.99
204.93 K, 9792 kPa	67.7
207.08 K, 12969 kPa	68.02
209.23 K, 16115 kPa	68
211.37 K, 19219 kPa	68.42
213.5 K, 22288 kPa	68.53
215.62 K, 25311 kPa	68.58
217.74 K, 28297 kPa	69.12
219.85 K, 31246 kPa	69
223.34 K, 2896 kPa	67.94
225.51 K, 5714 kPa	67.91
227.67 K, 8494 kPa	68.08
229.82 K, 11254 kPa	68.44
231.97 K, 13976 kPa	68.41
234.11 K, 16676 kPa	68.64
236.24 K, 19342 kPa	68.9
238.36 K, 21979 kPa	68.71
240.48 K, 24585 kPa	68.77
242.59 K, 27158 kPa	69.15
244.69 K, 29702 kPa	69.45
245.08 K, 2602 kPa	68.32
246.78 K, 32213 kPa	69.76
247.24 K, 5030 kPa	68.61
249.4 K, 7443 kPa	68.82
251.55 K, 9828 kPa	69.15
253.7 K, 12195 kPa	69.1
255.84 K, 14539 kPa	69.14
257.97 K, 16865 kPa	69.11
260.09 K, 19157 kPa	69.43
261.13 K, 2479 kPa	69.34
262.21 K, 21436 kPa	69.63
263.3 K, 4661 kPa	69.49
264.32 K, 23690 kPa	69.84
265.47 K, 6829 kPa	69.28
266.43 K, 25920 kPa	69.92
267.63 K, 8973 kPa	69.82
268.52 K, 28128 kPa	69.96
269.79 K, 11103 kPa	69.61
270.62 K, 30316 kPa	69.95
271.93 K, 13210 kPa	69.63
272.69 K, 32476 kPa	70.7
274.07 K, 15304 kPa	70.14
276.21 K, 17379 kPa	70.25
278.33 K, 19435 kPa	70.27
279.17 K, 2674 kPa	69.72
280.45 K, 21472 kPa	70.38
281.36 K, 4596 kPa	69.98
282.56 K, 23487 kPa	70.94
283.54 K, 6506 kPa	69.97
284.67 K, 25491 kPa	70.96
285.71 K, 8399 kPa	70.42
286.77 K, 27476 kPa	70.72
287.87 K, 10279 kPa	70.77
288.86 K, 29439 kPa	71.64
290.03 K, 12145 kPa	71.02
290.95 K, 31396 kPa	71.89
292.18 K, 14000 kPa	71.24
293.04 K, 33333 kPa	71.85
294.33 K, 15843 kPa	71.24
296.47 K, 17674 kPa	70.96
298.61 K, 19489 kPa	71.48
300.73 K, 2646 kPa	71.27
300.75 K, 21296 kPa	71.95
302.88 K, 23091 kPa	71.44
302.96 K, 4292 kPa	71.08
305.01 K, 24872 kPa	71.85
305.18 K, 5930 kPa	71.96
307.14 K, 26644 kPa	72.77
307.41 K, 7569 kPa	72.11
309.27 K, 28409 kPa	73.16
309.62 K, 9196 kPa	71.88
311.39 K, 30163 kPa	72.97
311.84 K, 10814 kPa	72.56
313.52 K, 31911 kPa	73.2
314.06 K, 12436 kPa	72.39
315.65 K, 33651 kPa	73
316.28 K, 14048 kPa	72.58
318.5 K, 15656 kPa	72.87
320.54 K, 2597 kPa	72.71
320.74 K, 17265 kPa	73.03
322.97 K, 18872 kPa	73.22
323.02 K, 4128 kPa	72.98
325.22 K, 20482 kPa	73.26
325.5 K, 5662 kPa	73.54
327.49 K, 22098 kPa	73.84
328.01 K, 7206 kPa	73.45
329.78 K, 23723 kPa	73.46
330.53 K, 8756 kPa	73.25
332.09 K, 25355 kPa	73.79
333.07 K, 10311 kPa	73.52
334.44 K, 27002 kPa	74.11
335.63 K, 11877 kPa	73.69
336.81 K, 28665 kPa	74.55
338.21 K, 13448 kPa	74.18
339.21 K, 30343 kPa	75.43
340.82 K, 15034 kPa	74.59
341.66 K, 32044 kPa	75.07
343.45 K, 16629 kPa	74.42
344.14 K, 33761 kPa	74.99
